Results reported in US20120010159A1, “COMBINATION THERAPIES WITH COX-2 INHIBITORS AND TREPROSTINIL” (United Therapeutics Corporation, priority 2010, published 2012).

What was measured:
[1] = oral administration; cited from earlier work
[2] = bioavailability when delivered to the duodenum; type: in vivo; conditions: duodenal delivery
Text: Accordingly, one embodiment of the present invention involves preferential delivery of the desired compound to the duodenum as well as pharmaceutical formulations that achieve duodenal delivery. Duodenal administration can be achieved by any means known in the art. In one of these embodiments, the present compounds can be formulated in an enteric-coated dosage form. Generally, enteric-coated dosage forms are usually coated with a polymer that is not soluble at low pH, but dissolves quickly when exposed to pH conditions of 3 or above. This delivery form takes advantage of the difference in pH between the stomach, which is about 1 to 2, and the duodenum, where the pH tends to be greater than 4.

[3] = administered by subcutaneous infusion; cited from earlier work

Compound | absolute oral bioavailability [1] [%] | bioavailability when delivered to the duodenum [2] | absolute bioavailability [3] [%]
CCCCC[C@H](O)CC[C@@H]1[C@H]2Cc3cccc(OCC(=O)O)c3C[C@H]2C[C@H]1O [treprostinil] | ~10 | increased bioavailability | 
CCCCC[C@H](O)CC[C@@H]1[C@H]2Cc3cccc(OCC(=O)O)c3C[C@H]2C[C@H]1O [treprostinil sodium] |  |  | ~100
